Literature values, collected in patent US20240156825A1, “USE OF SELECTIVE VEGFR2 AND FGFR1 INHIBITORS” (Fountain Therapeutics Inc., priority 2022, published 2024).
Like-named read-outs stand apart in the source and are kept apart here.

Experiments:
VEGFR2 = VEGFR2 (Homo sapiens, UniProt P35968); conditions: reported IC50 to VEGFR2, read-out: VEGFR2 IC50_μM, cited from earlier work
any gene target = conditions: next lowest IC50 value to any gene target, read-out: Min IC50_μM, cited from earlier work
[1] = Table 3, selective inhibitors of VEGFR2

Chain of VEGFR2 (P35968 20-1356, species assumed): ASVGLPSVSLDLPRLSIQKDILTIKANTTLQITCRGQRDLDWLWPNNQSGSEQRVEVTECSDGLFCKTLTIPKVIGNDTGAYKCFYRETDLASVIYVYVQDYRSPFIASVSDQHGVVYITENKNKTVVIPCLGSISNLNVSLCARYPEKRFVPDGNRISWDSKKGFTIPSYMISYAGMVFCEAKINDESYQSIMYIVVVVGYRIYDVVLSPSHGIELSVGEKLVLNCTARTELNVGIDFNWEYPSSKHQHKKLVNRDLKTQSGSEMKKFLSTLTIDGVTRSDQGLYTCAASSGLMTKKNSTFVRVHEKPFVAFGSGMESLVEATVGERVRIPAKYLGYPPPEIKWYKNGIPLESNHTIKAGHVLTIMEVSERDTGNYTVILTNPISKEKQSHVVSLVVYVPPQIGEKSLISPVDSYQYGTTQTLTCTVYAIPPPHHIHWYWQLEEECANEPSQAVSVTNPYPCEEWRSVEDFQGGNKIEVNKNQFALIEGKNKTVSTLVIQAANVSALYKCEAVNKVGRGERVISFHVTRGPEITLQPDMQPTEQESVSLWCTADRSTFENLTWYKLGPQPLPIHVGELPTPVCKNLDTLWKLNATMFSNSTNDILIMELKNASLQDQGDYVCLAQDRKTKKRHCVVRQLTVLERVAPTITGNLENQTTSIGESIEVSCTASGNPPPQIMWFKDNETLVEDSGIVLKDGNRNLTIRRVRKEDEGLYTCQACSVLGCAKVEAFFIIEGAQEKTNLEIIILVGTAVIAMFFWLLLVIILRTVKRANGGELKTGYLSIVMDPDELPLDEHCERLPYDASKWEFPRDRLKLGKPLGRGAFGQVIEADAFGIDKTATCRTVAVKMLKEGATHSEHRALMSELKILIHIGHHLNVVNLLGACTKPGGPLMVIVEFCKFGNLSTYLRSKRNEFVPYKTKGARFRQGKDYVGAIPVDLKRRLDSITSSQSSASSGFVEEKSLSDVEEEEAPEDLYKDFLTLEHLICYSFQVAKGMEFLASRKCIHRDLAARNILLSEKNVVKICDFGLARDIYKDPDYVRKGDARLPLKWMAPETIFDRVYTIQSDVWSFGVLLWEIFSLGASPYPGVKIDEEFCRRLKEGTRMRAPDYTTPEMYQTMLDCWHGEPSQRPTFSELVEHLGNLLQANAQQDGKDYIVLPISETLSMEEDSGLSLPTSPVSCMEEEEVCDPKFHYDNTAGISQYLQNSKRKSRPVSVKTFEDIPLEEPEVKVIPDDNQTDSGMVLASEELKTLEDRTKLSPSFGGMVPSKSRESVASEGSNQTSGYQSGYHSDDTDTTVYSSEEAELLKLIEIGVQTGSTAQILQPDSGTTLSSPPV

| Compound | IC50 (VEGFR2) [nM] | IC50 (any gene target) [nM] | IC50 (VEGFR2; [1]) [nM] | IC50 (any gene target; Table 3) [nM] |
| --- | --- | --- | --- | --- |
| COc1cc2c(Nc3ccc(Br)cc3F)ncnc2cc1OC/C=C/CN1CCCC1 [compound 22478260] | 8 | 30 |  |  |
| Nc1ccc2c(c1)C(c1ccccc1Cl)=Nc1cn[nH]c1N2 [compound 136002661] | 34 | 88 |  |  |
| COc1cc2c(Nc3ccc(Cl)c(Cl)c3)ncnc2cc1OCC1CN(S(=O)(=O)CCCCl)CCO1 (stereo not drawn) [compound 57802656] | 50 | 50 |  |  |
| CCC(=O)N1CCOC(COc2cc3ncnc(Nc4ccc(Cl)c(Cl)c4)c3cc2OC)C1 (stereo not drawn) [compound 57802906] |  |  | 50 | 50 |
| COc1cc2nccc(Oc3ccc4c(C(=O)NC5CCC5)cccc4c3)c2cc1OC [compound 24824448] | 1.3 | 440 |  |  |
| C[C@@H](Nc1ncnc2[nH]c(-c3ccc(C(=O)NO)cc3)cc12)c1ccc(F)cc1 [compound 24900772] |  |  | 100 | 100 |
| Cc1cn2c(-c3cn[nH]c3)cnc2c(Nc2cc(CN3CCCCC3)ns2)n1 [compound 25144294] | 4 | 12 |  |  |
| COc1cc2c(Nc3ccc(Cl)c(Cl)c3)ncnc2cc1OC[C@@H]1CN2CCC[C@@H]2CO1 [compound 57802582] |  |  | 50 | 50 |
| COc1cc2c(Nc3ccc(Cl)c(Cl)c3F)ncnc2cc1OC[C@@H]1CN(C)CC(=O)N1 [compound 57802639] |  |  | 50 | 50 |
| COc1cc2c(Nc3cc(Cl)c(Cl)cc3F)ncnc2cc1OC[C@@H]1CO[C@H]2[C@@H]1OC[C@@H]2OC [compound 66954904] |  |  | 50 | 50 |
| C[C@@H](Nc1ncnc2[nH]c(-c3ccc(OCCCC(=O)NO)cc3)cc12)c1ccccc1 [compound 24900506] | 100 | 100 |  |  |
| COc1cc2ncnc(Nc3ccccc3Cl)c2cc1OCCCC(=O)NO [compound 127027019] | 857 | 1260 |  |  |
| COc1cc2c(Nc3ccc(F)c(Cl)c3F)ncnc2cc1OCC1CN(C)CCO1 (stereo not drawn) [compound 57802680] | 50 | 50 |  |  |
| CN(c1ccc(F)c(NC(=O)c2cccc(OC(C)(C)C#N)c2Cl)c1)c1ccc2nc(NC(=O)C3CC3)sc2n1 [compound 25206346] | 1.2 | 23 |  |  |
| CCN1CCC(c2nc(COc3cc4ncnc(Nc5ccc(Cl)c(Cl)c5)c4cc3OC)no2)CC1 [compound 58013796] |  |  | 50 | 50 |
| COc1cc2c(Nc3ccc(Cl)c(Cl)c3)ncnc2cc1OCC1CN(CC(N)=O)CCO1 (stereo not drawn) [compound 57802603] |  |  | 50 | 50 |
| COc1cc2c(Nc3ccc(Cl)cc3F)ncnc2cc1OCC1CCN(C)CC1 [compound 23133320] | 15 | 50 |  |  |
| COc1cc2c(Nc3ccc(C)c(Br)c3)ncnc2cc1OCC1CN(C)CCO1 (stereo not drawn) [compound 57802550] |  |  | 50 | 50 |
| CC1(C)CC(NC(=O)c2cccc(-c3cc4nccc(Nc5cccc(O)c5)n4n3)c2)CC(C)(C)N1[O] [compound 46179972] | 3.3 | 5 |  |  |
| COc1cc2c(Nc3ccc(Br)c(Cl)c3F)ncnc2cc1OC[C@@H]1CN2CCC[C@H]2CO1 [compound 57802905] |  |  | 50 | 50 |
| COc1cc2c(Nc3ccc(F)c(Cl)c3F)ncnc2cc1OCC1CN(C)C(C)(C)CO1 (stereo not drawn) [compound 57802650] | 50 | 50 |  |  |
| CN1CCC(Nc2ccc3c(c2)/C(=C/c2cc4c([nH]2)CCN(C(=O)N2CCOCC2)C4)C(=O)N3)CC1 [compound 71714235] |  |  | 3 | 3 |
| COc1cc2c(Nc3ccc(Br)c(Cl)c3F)ncnc2cc1O[C@@H]1C[C@H]2OC[C@H](OC)[C@H]2O1 [compound 134155171] |  |  | 50 | 50 |

| Compound | IC50 (VEGFR2) [nM] | IC50 (any gene target) [nM] | IC50 (VEGFR2; [1]) [nM] | IC50 (any gene target; Table 3) [nM] |
| --- | --- | --- | --- | --- |
| COc1cc(C2=C(c3cn(COCC[Si](C)(C)C)c4ccccc34)CNC2=O)cc(OC)c1OC [compound 24894886] | 3100 | 4500 |  |  |
| COc1cc2c(Nc3ccc(Br)c(Cl)c3F)ncnc2cc1OC[C@@H]1CN2CCC[C@H]2C(=O)N1 [compound 57802807] | 50 | 50 |  |  |
| COc1cc2c(Nc3ccc(Cl)cc3F)ncnc2cc1OCCC1CCN(C)CC1 [compound 5329052] | 55 | 70 |  |  |
| c1ccc2sc(-c3ccc(Nc4ncnc5[nH]ccc45)cc3)nc2c1 [compound 44564789] | 1200 | 1300 |  |  |
| COc1cc2ncnc(Nc3ccc(Cl)cc3)c2cc1OCCCC(=O)NO [compound 127027096] | 182 | 698 |  |  |
| CC(C)(Nc1nc(Nc2ccc3ncsc3c2)[nH]c(=O)n1)c1ccccc1 [compound 135454992] | 35 | 550 |  |  |
| COc1cc2c(Nc3ccc(Br)c(Cl)c3F)ncnc2cc1OCC1CN(C)CCO1 (stereo not drawn) [compound 57802566] |  |  | 50 | 50 |
| CN=C(NC#N)N1CCOC(COc2cc3ncnc(Nc4ccc(Cl)c(C)c4)c3cc2OC)C1 (stereo not drawn) [compound 89125605] |  |  | 50 | 50 |
| COc1cc2nccc(Oc3ccc4c(C(=O)NC(C)C)cccc4c3)c2cc1OC [compound 24822600] | 5 | 190 |  |  |
| COc1cc2c(Nc3cc(O)c(Cl)cc3F)ncnc2cc1OCC1CCN(C)CC1 [compound 73357210] |  |  | 3 | 3 |
| COc1cc2nccc(Oc3ccc4c(C(=O)NC(C)(C)C)cccc4c3)c2cc1OC [compound 24823091] | 1500 | 3700 |  |  |
| COc1cc2c(Nc3cc(F)c(Br)c(F)c3)ncnc2cc1OCC1CN(C)CCO1 (stereo not drawn) [compound 57802849] |  |  | 50 | 50 |
| COc1cc2c(Nc3ccc(F)c(Cl)c3F)ncnc2cc1OC[C@@H]1CN2CCOC[C@H]2CO1 [compound 66838567] |  |  | 50 | 50 |
| COc1cc2c(Nc3ccc(Cl)c(Cl)c3Cl)ncnc2cc1OCC1CN(C)CCO1 (stereo not drawn) [compound 57802801] | 50 | 50 |  |  |
| COc1cc2c(Nc3ccc(Cl)c(Cl)c3F)ncnc2cc1OC[C@@H]1CN2CCC[C@H]2C(=O)N1 [compound 53630923] |  |  | 50 | 50 |
| COCn1cc(C2=C(c3cc(OC)c(OC)c(OC)c3)C(=O)NC2)c2ccccc21 [compound 24894887] | 2300 | 3200 |  |  |
| COc1cc(C2=C(c3cn(COCc4ccccc4)c4ccccc34)CNC2=O)cc(OC)c1OC [compound 24894993] | 1600 | 1700 |  |  |
| O=C(CCCCCCCNC(=O)c1cc(Oc2ccc(NC(=O)Nc3ccc(Cl)c(C(F)(F)F)c3)cc2)ccn1)NO [compound 25071593] | 100 | 100 |  |  |
| COc1cc2c(Nc3ccc(Br)c(Cl)c3Cl)ncnc2cc1OC[C@@H]1CO[C@H]2[C@@H]1OC[C@@H]2OC [compound 66954887] |  |  | 50 | 50 |
| COc1cc2c(Nc3ccc(Cl)c(Cl)c3)ncnc2cc1O[C@@H]1C[C@H]2OC[C@H](OC)[C@H]2O1 [compound 134140126] |  |  | 50 | 50 |
| COc1cc(C2=C(c3c[nH]c4ccc(I)cc34)C(=O)NC2=O)cc(OC)c1OC [compound 46231220] | 24.9 | 29.5 |  |  |
| COc1ccc2c(c1)/C(=C/c1cc3c([nH]1)CCN(C(=O)N1CCN(C)CC1)C3)C(=O)N2 [compound 71714231] |  |  | 6 | 6 |
